{"source": "patent EP4119948A1", "about": "“METHOD FOR STRATIFICATION AND TREATMENT OF MULTIPLE SCLEROSIS” (Universität Zürich, priority 2021, dated 2023)", "key": {"[1]": {"tested_on": "CSF-infiltrating CD4+ T cells", "assay": "IFN-γ release (ELISA) of PHA-expanded CSF-infiltrating CD4+ T cells stimulated with peptides presented by autologous PBMCs", "type": "cell-based, human", "conditions": "peptide 10 µM, 105 MS patients", "procedure": "(§1) PBMCs were freshly isolated using Ficoll (Eurobio, Germany) density gradient centrifugation. CSF-infiltrating CD4^+ T cells were expanded with PHA in a single round of stimulation using a previously reported protocol aimed to reduce TCR repertoire bias (Planas et al., […], Sci Transl Med, 10(462):eaat4301). 6 × 10^4 PHA-expanded CSF-infiltrating CD4^+ T cells were seeded in quadruplicate with 2 × 10^5 irradiated autologous PBMCs as antigen presenting cells and stimulated with peptides (Table 2) at a final concentration of 10 µM and with a T Cell Activation Kit (anti-CD3, anti-CD28, anti-CD2 beads) (Miltenyi Biotec) as positive control. Table 2. GDP-L-FS, myelin and CEF Peptides (amino acid sequences)\nRelease of IFN-γ was measured using the ELISA MAX™ Deluxe Set Human IFN-γ (Biolegend, San Diego, CA, USA) according to the manufacturer's instructions. A well was considered positive if IFN-γ ≥20 pg/ml and a patient was considered positive for a peptide if the mean IFN-γ of the four wells was ≥ 20 pg/ml and at least 3 of the 4 wells were positive."}, "[2]": {"tested_on": "CSF-infiltrating CD4+ T cells", "assay": "Proliferative response (3H-thymidine, stimulation index) of PHA-expanded CSF-infiltrating CD4+ T cells to peptides presented by autologous PBMCs", "type": "cell-based, human", "conditions": "peptide 10 µM, 72 h, 105 MS patients", "procedure": "as §1\nProliferation was measured 72 h after stimulation using 3H-thymidine (Hartmann Analytic, Braunschweig, Germany) as previously reported (Planas et al., 2018). The stimulation index of single wells (SI) was calculated as follows: SI = (cpm well with peptide) / (Mean cpm wells without peptide). A well was considered positive if SI ≥2."}}}
{"substance": "MBP 83-99 (ENPVVHFFKNIVTPRT; listed as Homo sapiens) [MBP (83-99), myelin peptide …]", "values": [{"measurement": "Positive wells % IFNγ release", "setting": "[1]; well positive if IFN-γ ≥20 pg/ml, quadruplicates (420 wells per peptide)", "value": 6.28, "unit": "%"}, {"measurement": "Positive patients % IFNγ release", "setting": "[1]; patient positive if mean IFN-γ of four wells ≥20 pg/ml and at least 3 of 4 wells positive", "value": 5.71, "unit": "%"}, {"measurement": "Positive wells % Proliferation", "setting": "[2]; well positive if SI ≥2, quadruplicates (420 wells per peptide)", "value": 1.92, "unit": "%"}, {"measurement": "Positive patients % Proliferation", "setting": "[2]; patient positive if mean SI of four wells ≥2 and at least 3 of four wells SI ≥2", "value": 0.96, "unit": "%"}]}
